Here are results for 2 molecules from patent US20240366756A1, “COMBINATIONS AND USES THEREOF” (Incyte Corporation, priority 2011, published 2024).

The test system of one experiment is MEC-1 cells. Put plainly: Cytotoxicity/ADCC cell killing of MEC-1 cells with PBMCs (FACS, propidium iodide). The note with it: for normalized specific killing: combination set to 1, Bendamustine 100 μg/ml, MOR00208 6.6 pM; for % dead cells: MOR00208 6.6 pm, BEN 100 μg/ml (48 h pre-incubation), E:T 30:1, 4 h, control RefMab33. The format is cell-based, human. The source says: MEC-1 cells: chronic B-cell leukemia cell line DSMZ #ACC497; Cell Medium: Iscove's Modified Dulbecco's Medium (IMDM) with GlutaMAX™, Invitrogen, Cat No.: 31980-048, 20% FCS; PBMCs: RPMI1640, with stabile Glutamine, PAN Biotech GmbH, Cat No.: P04-13500 supplemented with 10% FCS; Biocoll: Biochrome AG CAT No.: L6115 LOT No.: 1050T; Bendamustine: Mundipharma LOT No.: 88018; FCS: PAN CAT No.: 3302-P282403 LOT No.: P282403; and RefmAb33 (anti-RSV) with same Fc region as MOR00208.
The cytotoxicity of MOR00208 and bendamustine alone and in combination was tested in MEC-1 cells. BEN is an alkylating agent, therefore, functions via direct cytoxicity in MEC-1 cells. MOR00208 targets CD19 and additionally functions via ADCC in killing MEC-1 cells. For the following groups MEC-1 cell killing was measured: BEN at 100 μg/ml; MOR00208 at 6.6 pm and the combination of MOR00208 at 6.6 pm and BEN at 100 μg/ml. […] The following were used as controls: RefmAb33, or PBMCs alone. In both the BEN group and MOR00208+BEN combination group, MEC-1 cells were pre-incubated with BEN 48 hours prior to the ADCC assay measurements. The MEC-1 cells were stained using 1 mg/ml Calcein AM then counted and adjusted to 2×10^5/ml. The PBMCs were counted and adjusted to 6×10^6/ml. The cell killing assays were done as follows: using 96 well plates, a 100 μl cell suspension of MEC-1 cells was added per well, then 100 μl cell suspension of PBMCs was added to each well resulting in an E:T ratio of 30:1. The antibodies were diluted to 1 μg/ml in medium. Cells were centrifuged and re-suspended. To the target:effector cell-pellet, 100 μl antibody solution or according control solution was added. The mixture was incubated for 4 h in CO2-incubator at 37° C. The cell killing measurements were taken as follows: the incubated cell solution (˜100 μl) was transferred into FACS tubes and 200 μl FACS buffer (DPBS+3% FCS) and 0.5 μl PI stock solution was added to each tube. FACS-Calibur was used. Dead MEC-1 cells were stained with propidium iodide.
The values represent % dead cells. Each experiment represents PBMCs from different donors. The controls used for each experiment was RefMab33.
The values shown in Table 2 are calculated as follows: 1) from the raw data (% dead cells) shown in Table 1, the background (controls) were subtracted, resulting in the specific killing for each treatment group; then 2) the specific killing values were normalized by setting the combination of MOR00208+BEN to 1. The averages of Table 2 are depicted in FIG. 5.
[…] (CI) calculations were completed in order to determine synergy of the combination of the exemplified anti-CD19 antibody and bendamustine as compared to MOR00208 and BEN alone. Such calculations are described in Ting-Chao Chou, Theoretical Basis, Experimental Design, and Computerized Simulation of Synergism and Antagonism in Drug Combination Studies, Pharmacol Rev 58:621-681 (2006), which is incorporated by reference in its entirety and Chou T C, Talalay P, Quantitative analysis of dose-effect relationships: the combined effects of multiple drugs or enzyme inhibitors. Adv Enzyme Regul 22:27-55 (1984), which is incorporated by reference in its entirety. The methods of Chou-Talalay are carried out using the CI-isobol method.
The median-effect equation models of the effect of an inhibitor (such as a drug) as Fa/Fu=(D/D50)^m, where D is the dose, Fa and Fu is the fraction of the system affected and unaffected by the dose D (Fa+Fu=1); D50 is the dose producing the median effect (e.g. IC50, ED50, LD50). The constant m determines the shape of the dose-effect curve. We used Excel Fit software to carry out a linear regression calculation to estimate the parameters m and D50.
The effects of the combination on MEC-1 cells is measured % cell death as described above.

Experiment [1] deals with RAMOS human Burkitt's lymphoma cells. Put plainly: Human Non-Hodgkin RAMOS tumor in SCID mice, survival model. The format is in vivo. The note with it: for Median Survival (Days Post-Inoculation): treatment related deaths excluded; for Median % Increase in Lifespan (ILS): vs. vehicle control/Ref_mAb_33; for Survival, pairwise comparison (Holm-Sidak) vs. Group 3: Group 3 = Bendamustine (16 mg/kg), listed as Bendamustine = 13 mg/kg. Here is the method:
Cyclophosphamide (Baxter, Lot. No. 1A548C); Vehicle Control: 0.9% sodium chloride, 25 mg/ml mannitol, pH 6.5-6.8 (adjusted with 0.01 M NaOH); SCID Mice (University of Adelaide, Waite Campus, Urrbaraie, SA, Australia, Strain C.B.-17-Igh-1^b-Prkdc^scid); RAMOS human Burkitt's lymphoma cells (ATCC number CRL-1596); Ref_mAb_33_IgG_Xen (10 mg/mL in PBS, referred to as Ref_mAb_33); Bendamustine (Mundipharma, Lot No. 83889).
SCID mice were pre-treated with Cyclophosphamide (75 mg/kg, i.p., twice daily) for two days prior to RAMOS cell inoculation (Day −2 and −1). On the day of inoculation (Day 0), the mice were separated into seven groups of ten mice each, and inoculated with 1×10^6 RAMOS cells each intravenously into the tail vein. The planned dosing regimen for each group is shown in Table 5 and commenced on Day 3. The study duration was 60 days.
From the raw data shown in Table 6, both the median survival in days and median increase in lifespan were calculated. All treatment related deaths were excluded in the calculations.
Median % Increased Lifespan (ILS) is calculated as follows: […]
The classification of the MOR000208/Bendamustine combination therapy (combo) effect was evaluated by comparing the ILS of the combination with the added ILS of the respective monotherapies:
Synergy/Potentiation*: ILSCombo>ILSMOR00208 3 mg/kg+ILSBendamustine. Synergistic effects are classified as potentiation if at least one of the monotherapies has no effect. Additivity: ILSCombo=ILSMOR00208 3 mg/kg+ILSBendamustine. Antagonism: ILSCombo<ILSMOR00208 3 mg/kg+ILSBendamustine.
In addition to an analysis of the data for purposes of identifying synergy, the following statistical analysis was also completed. Statistical analyses were carried out using the median values. Any animal that died unexpectedly or was culled prior to Day 17 of the study in the Test Article treatment groups was excluded from survival analysis calculation. The death/culling of these animals was attributed to compound toxicity rather than disease progression as they occurred well in advance of the first deaths in the Vehicle Control animals. A survival curve was created using the product limit of Kaplan and Meier, and survival curves compared using the log-rank (Mantel-Cox) test. Where significant differences were found, All Pairwise Multiple Comparison (Holm-Sidak Test) was performed. Comparison was done between all groups. In addition the comparison of the following groups were summarised in separate figures for each test article: Vehicle Control/Ref_mAb (group 10) against Bendamustine groups (Groups 2, 3 and 4) and Vehicle Control/Ref_mAb (group 10) against Combination groups (Groups 5 and 6) or respective MOR00208 monotherapy group (group 1). A p value of less than 0.05 was considered significant.

For the next experiment, the target named is T1, Human CD19 (human, UniProt P15391 20-556).
T1 sequence: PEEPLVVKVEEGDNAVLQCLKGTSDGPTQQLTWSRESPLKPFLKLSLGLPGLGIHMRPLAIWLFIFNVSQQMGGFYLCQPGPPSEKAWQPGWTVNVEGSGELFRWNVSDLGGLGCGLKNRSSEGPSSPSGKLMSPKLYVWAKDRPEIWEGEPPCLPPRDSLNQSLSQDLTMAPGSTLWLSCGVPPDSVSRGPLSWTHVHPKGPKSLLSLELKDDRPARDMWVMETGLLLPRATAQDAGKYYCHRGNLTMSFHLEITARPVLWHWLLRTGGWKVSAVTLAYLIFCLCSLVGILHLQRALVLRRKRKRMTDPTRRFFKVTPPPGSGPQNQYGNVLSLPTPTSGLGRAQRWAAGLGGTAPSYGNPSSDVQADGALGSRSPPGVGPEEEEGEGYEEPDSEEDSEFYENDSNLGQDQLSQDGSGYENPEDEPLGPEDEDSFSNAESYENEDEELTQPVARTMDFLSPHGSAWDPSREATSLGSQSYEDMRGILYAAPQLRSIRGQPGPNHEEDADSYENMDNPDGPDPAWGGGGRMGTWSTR
In words: cell-based or functional assay.

Marks after values point to notes of the source that are not given here.

As for `Cn1c(CCCC(=O)O)nc2cc(N(CCCl)CCCl)ccc21` [Bendamustine, reference compound], the normalized specific killing with MEC-1 cells (Average of experiments 1-3) amounted to 0.8; in the experiment on MEC-1 cells (Experiment 1, background subtracted), 0.85; in the experiment with MEC-1 cells (Experiment 2, background subtracted) it was 0.75; in the experiment with MEC-1 cells (Experiment 3, background subtracted), 0.85. In addition, the “% dead cells” value with MEC-1 cells (Experiment 1 (PBMC donor)) worked out at 83.6%; with MEC-1 cells (Experiment 2 (PBMC donor)), 53.3%; with MEC-1 cells (Experiment 3 (PBMC donor)), 75.6%. The EC50 with MEC-1 cells (Homo sapiens, MEC1, read-out: EC50 (MEC-1 cell killing)) was ~100 µg/mL. In addition, in the experiment with MEC-1 cells (normalized specific killing, monotherapy vs. BEN + MOR00208 combination), the “Bonferroni's Multiple Comparison Test Mean Diff.” value is listed as −0.1834. For the same molecule, the entries for the “Median Survival (Days Post-Inoculation)” value in experiment [1] (13 mg/kg) and in experiment [1] (16 mg/kg) were 24^b Days Post-Inoculation and 24^c Days Post-Inoculation, respectively. In addition, the “Median % Increase in Lifespan (ILS)” value in experiment [1] (13 mg/kg) and in experiment [1] (16 mg/kg) was −5.88% in each case. In addition, the “Survival, pairwise comparison (Holm-Sidak) vs. Group 3” value in experiment [1] (Table 8) and in experiment [1] (untitled repeat of Table 8) was “No (No: There is no statistically significant difference (p ≥ 0.05).)” throughout.

B1: MOR00208 (antibody, human IgG1, kappa, V domains shown)
VH: EVQLVESGGGLVKPGGSLKLSCAASGYTFTSYVMHWVRQAPGKGLEWIGYINPYNDGTKYNEKFQGRVTISSDKSISTAYMELSSLRSEDTAMYYCARGTYYYGTRVFDYWGQGTLVTVSS
VL: DIVMTQSPATLSLSPGERATLSCRSSKSLQNVNGNTYLYWFQQKPGQSPQLLIYRMSNLNSGVPDRFSGSGSGTEFTLTISSLEPEDFAVYYCMQHLEYPITFGAGTKLEIKR
With B1, in the experiment with Human CD19, the “EC50 of MEC-1 cell killing (ADCC with human PBMCs)” value is ~6.6 pM.

As usually defined, the EC50 is the concentration needed to bring the measured effect to its halfway point.
